Values joined by “and” are separate entries in the source; they are usually repeats but may differ in a detail not shown here. Equal values may be shown once.
Key:
Assay in all cases: MIC, liquid medium test tube series dilution test
E. coli 14 = type: cell-based; conditions: E. coli 14, 24 hours, 37°C
How it was run: (§1)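 Read-out: visual turbidity after 24 h at 37°C. The MIC, in units/ml, corresponds to the non-turbid tube in a liquid-medium test tube dilution series prepared in complete nutrient medium.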

E. coli 183/58 = type: cell-based; conditions: E. coli 183/58, 24 hours, 37°C
How it was run: as §1

E. coli A 261 = type: cell-based; conditions: E. coli A 261, 24 hours, 37°C
How it was run: as §1

E. coli C 165 = type: cell-based; conditions: E. coli C 165, 24 hours, 37°C
How it was run: as §1

Klebsiella 63 = type: cell-based; conditions: Klebsiella 63, 24 hours, 37°C
How it was run: as §1

Klebsiella K 10 = type: cell-based; conditions: Klebsiella K 10, 24 hours, 37°C
How it was run: as §1

[1] = tested on: Streptoc. faec. ATCC 9790; type: cell-based; conditions: Strep. faec. (Enterococcus) ATCC 9790, 24 hours, 37°C
How it was run: as §1

Proteus vulg. 1017 = type: cell-based, Proteus vulgaris; conditions: Proteus vulg. 1017, 24 hours, 37°C
How it was run: as §1

Proteus vulg. 3400 = type: cell-based, Proteus vulgaris; conditions: Proteus vulg. 3400, 24 hours, 37°C
How it was run: as §1

Psdm. aerug. Bonn = type: cell-based, Pseudomonas aerug.; conditions: 24 hours, 37°C
How it was run: as §1

Psdm. aerug. Walter = type: cell-based, Pseudomonas aerug.; conditions: 24 hours, 37°C
How it was run: as §1

Staph. aureus 133 = type: cell-based, Staphylococcus aureus; conditions: Staph. aureus 133, 24 hours, 37°C
How it was run: as §1

Staph. aureus 1777 E = type: cell-based, Staphylococcus aureus; conditions: 24 hours, 37°C
How it was run: as §1

Row | MIC (Klebsiella K 10) | MIC (E. coli 14) | MIC (E. coli 183/58) | MIC (E. coli A 261) | MIC (E. coli C 165) | MIC (Klebsiella 63) | MIC [1] | MIC (Proteus vulg. 1017) | MIC (Proteus vulg. 3400) | MIC (Psdm. aerug. Bonn) | MIC (Psdm. aerug. Walter) | MIC (Staph. aureus 133) | MIC (Staph. aureus 1777 E) | SMILES | further results
1 | 50 units/ml | – | – | – | – | – | – | – | – | – | – | – | – | CC1(C)S[C@@H]2[C@H](NC(=O)[C@H](NC(=O)N3CCNC3=O)c3ccccc3)C(=O)N2[C@H]1C(=O)O [Example 144 A, D(-)-α-(Imidazolidin-2-on-1-yl-carbonylamino)-benzyl-penicillin] | MIC (E. coli 14; listed as 144): 1.56 units/ml; MIC (E. coli 183/58; listed as 144): 50 units/ml; MIC (E. coli A 261; listed as 144): 400 units/ml; MIC (E. coli C 165; listed as 144): 6.25 units/ml; MIC (Klebsiella 63; listed as 144): 50 units/ml; MIC ([1]; listed as 144): 25 units/ml; MIC (Proteus vulg. 1017; listed as 144): 12 units/ml; MIC (Proteus vulg. 3400; listed as 144): 25 units/ml; MIC (Psdm. aerug. Bonn; listed as 144): 6.25 units/ml; MIC (Psdm. aerug. Walter; listed as 144): 12.5 units/ml; MIC (Staph. aureus 133; listed as 144): < 0.8 units/ml; MIC (Staph. aureus 1777 E; listed as 144): 200 units/ml
2 | 100 units/ml | 1.56 units/ml | 3.12 units/ml | 400 units/ml | 6.25 units/ml | 100 units/ml | 100 units/ml | 6.25 units/ml | 6.25 units/ml | 12 units/ml and 12.5 units/ml | 25 units/ml | < 0.78 units/ml | 400 units/ml | CN(C(=O)N[C@@H](C(=O)N[C@@H]1C(=O)N2[C@@H]1SC(C)(C)[C@@H]2C(=O)O)c1ccccc1)C(=O)C1CCCCC1 [Example 62] | –
3 | 200 units/ml | 12.5 units/ml | 100 units/ml | > 400 units/ml | 50 units/ml | 100 units/ml | 50 units/ml | 50 units/ml | 50 units/ml | 25 units/ml | 200 units/ml | < 0.8 units/ml | 100 units/ml | CC1(C)S[C@@H]2[C@H](NC(=O)[C@H](NC(=O)N3CCNC3=S)c3ccccc3)C(=O)N2[C@H]1C(=O)O [Example 147 A] | MIC (Proteus vulg. 3400; listed as 147 A): 200 units/ml
4 | – | – | – | > 400 units/ml | – | – | 200 units/ml | – | – | – | – | 1.6 units/ml | 400 units/ml | CC(C)OC(=O)N(C)C(=O)N[C@@H](C(=O)N[C@@H]1C(=O)N2[C@@H]1SC(C)(C)[C@@H]2C(=O)O)c1ccccc1 [Example 11 C, Sodium D(-)-α-(3-isopropoxycarbonyl-3-methyl-ureido)-benzyl-penicillin] | MIC (E. coli 14; listed as 11 C): 6.3 units/ml; MIC (E. coli 14; listed as (A) of Example 11): 6.25 units/ml; MIC (E. coli 183/58; listed as 11 C): 12.5 units/ml; MIC (E. coli 183/58; listed as (A) of Example 11): 12.5 units/ml; MIC (E. coli C 165; listed as 11 C): 50 units/ml; MIC (E. coli C 165; listed as (A) of Example 11): 50 units/ml; MIC (Klebsiella 63; listed as 11 C): 100 units/ml; MIC (Klebsiella K 10; listed as 11 C): 50 units/ml; MIC (Proteus vulg. 1017; listed as 11 C): 100 units/ml; MIC (Proteus vulg. 3400; listed as 11 C): 100 units/ml; MIC (Psdm. aerug. Bonn; listed as 11 C): 400 units/ml; MIC (Psdm. aerug. Bonn; listed as (A) of Example 11): 50 units/ml; MIC (Psdm. aerug. Walter; listed as 11 C): 200 units/ml; MIC (Psdm. aerug. Walter; listed as (A) of Example 11): 100 units/ml
5 | 200 units/ml | 3.12 units/ml | 50 units/ml | > 400 units/ml | 25 units/ml | 100 units/ml | 200 units/ml | 50 units/ml | 100 units/ml | 50 units/ml | 100 units/ml | 3.12 units/ml | 50 units/ml | CN(C(=O)N[C@@H](C(=O)N[C@@H]1C(=O)N2[C@@H]1SC(C)(C)[C@@H]2C(=O)O)c1ccccc1)C(=O)N1CCOCC1 [Example 125, Sodium D(-)-α-(3-[4-morpholinyl]-carbonyl-3-methyl-ureido)-benzylpenicillin] | –
6 | 12.5 units/ml | 0.78 units/ml | 1.56 units/ml | 50 units/ml | 3.12 units/ml | 12.5 units/ml | 25 units/ml | 3.12 units/ml | 6.25 units/ml | 12.5 units/ml | 25 units/ml | < 0.78 units/ml | 12.5 units/ml | CN(C(=O)N[C@@H](C(=O)N[C@@H]1C(=O)N2[C@@H]1SC(C)(C)[C@@H]2C(=O)O)c1ccccc1)C(=O)c1ccc(Cl)cc1[N+](=O)[O-] [Example 127, Sodium D(-)-α-(3-[2-nitro-4-chlorobenzoyl]-3-methyl-ureido)-benzylpenicillin] | –
7 | 25 units/ml | 6 units/ml | 100 units/ml | > 400 units/ml | 50 units/ml | 100 units/ml | 100 units/ml | 100 units/ml | 200 units/ml | 100 units/ml | 100 units/ml | < 0.8 units/ml | 100 units/ml | CC(=O)N(C)C(=O)NC(C(=O)N[C@@H]1C(=O)N2[C@@H]1SC(C)(C)[C@@H]2C(=O)O)c1ccc(Cl)cc1 (stereo partly drawn) [Example 121, Sodium R,S-α-(3-acetyl-3-methyl-ureido)-4-chlorobenzylpenicillin] | –
8 | 50 units/ml | 3,12 units/ml | 12,5 units/ml | 400 units/ml | 6,25 units/ml | 25 units/ml | 12,5 units/ml | 6,25 units/ml | 12,5 units/ml | 6,25 units/ml | 12,5 units/ml | < 0,78 units/ml | 200 units/ml | CC1(C)S[C@@H]2[C@H](NC(=O)[C@H](NC(=O)N3CCNC3=O)c3ccccc3)C(=O)N2[C@H]1C(=O)O [Example 53, D(-)-α-[(Imidazolidin-2-on-1-yl)-carbonylamino]-benzylpenicillin] | –
9 | 50 units/ml | < 0.78 units/ml | < 0.78 units/ml | 400 units/ml | 1.56 units/ml | 50 units/ml | 50 units/ml | 1.56 units/ml | 3.12 units/ml | 6.25 units/ml | 12.5 units/ml | < 0.78 units/ml | 200 units/ml | CN(C(=O)C=Cc1ccccc1)C(=O)N[C@@H](C(=O)N[C@@H]1C(=O)N2[C@@H]1SC(C)(C)[C@@H]2C(=O)O)c1ccccc1 [Example 63, Sodium D(-)-α-(3-cinnamoyl-3-methyl-ureido)-benzylpenicillin] | –
10 | 4-20 units/ml | 0.8-4 units/ml | 4-20 units/ml | 100-500 units/ml | 4-20 units/ml | 4-20 units/ml | 4-20 units/ml | 4-20 units/ml | 4-20 units/ml | 20-100 units/ml | 20-100 units/ml | 0.8 units/ml | 20-100 units/ml | CNC(=O)N(C)C(=O)N[C@@H](C(=O)N[C@@H]1C(=O)N2[C@@H]1SC(C)(C)[C@@H]2C(=O)O)c1ccccc1 [Example 110, Sodium D(-)-α-(3-methylaminocarbonyl-3-methyl-ureido)-benzylpenicillin] | –
11 | 4-20 units/ml | < 0.8 units/ml | < 0.8 units/ml | 20-100 units/ml | 0.8-4 units/ml | 4-20 units/ml | 4-20 units/ml | 0.8-4 units/ml | 0.8-4 units/ml | 4- 20 units/ml | 4-20 units/ml | 0.8 units/ml | 20-100 units/ml | CN(C(=O)N[C@@H](C(=O)N[C@@H]1C(=O)N2[C@@H]1SC(C)(C)[C@@H]2C(=O)O)c1ccccc1)C(=O)c1ccc(Cl)cc1 [Example 112, Sodium D(-)-α-(3-p-chlorebenzoyl-3-methyl-ureido)-benzylpenicillin] | –
